# Results: US7964531B2, “3-phenoxy-4-pyridazinol derivatives and herbicidal composition containing the same” (Mitsui Chemicals Agro, Inc., priority 2001, dated 2011)
# Key:
# Format in all cases: in vivo
# Cyperus serotinus [1] = experiment: Test Example 1: herbicidal effects, paddy-field pot test; details: wettable powder applied 3 days after transplanting, judged after 25 days
# In short: (§1)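 Herbicidal effect and crop injury were rated 0 (0-10% inhibition) to 5 (91-100%) 25 days after treatment. Water-diluted wettable powder was applied to flooded greenhouse pots 3 days after transplanting 2.2-leaf rice. The pots held seeded weeds and sprouted Cyperus serotinus tubers.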
# Scirpus joncoides [2] = experiment: as above; details: wettable powder applied 3 days after transplanting, judged after 25 days
# In short: as §1
# [3] = tested on: annual broad-leaved weeds (Lindernia spp., Rotala indica); experiment: as above; details: wettable powder applied 3 days after transplanting, judged after 25 days
# In short: as §1
# [4] = tested on: barnyardgrass (Echinochloa oryzicola Vasing.); experiment: as above; details: wettable powder applied 3 days after transplanting, judged after 25 days
# In short: as §1
# [5] = tested on: transplanted paddy-field rice; experiment: Test Example 1: crop injury against transplanted paddy-field rice; details: wettable powder applied 3 days after transplanting, judged after 25 days
# In short: as §1
# barnyardgrass = experiment: Test Example 2: herbicidal effects (soil treatment); details: dosage 2 kg/a; soil treatment the day after seeding; judged after 21 days
# In short: (§2)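 Pre-emergence test: seeds sown in upland soil in 150 cm^2 pots in a greenhouse, wettable powder diluted in water applied to soil surface the day after sowing at a predetermined dosage. Growth inhibition scored 21 days after treatment on a 0–5 scale (0: 0–10% to 5: 91–100%).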
# [6] = tested on: indian mustard (Brassica juncea (L.) Czern. et Coss); experiment: as above; details: dosage 2 kg/a; soil treatment the day after seeding; judged after 21 days
# In short: as §2
# black nightshade = experiment: Test Example 3: herbicidal effects (foliar treatment); details: chemical dosage 2 kg/a; foliar treatment at 10 to 15 cm; judged after 14 days
# Procedure: (§3) Judgment Standard • 0: Growth inhibition rate; 0 to 10% • 1: Growth inhibition rate; 11 to 30% • 2: Growth inhibition rate; 31 to 50% • 3: Growth inhibition rate; 51 to 70% • 4: Growth inhibition rate; 71 to 90% • 5: Growth inhibition rate; 91 to 100%.
# (§4) Upland soil was filled in 150 cm^2 pot, and seeds of velvetleaf, tall morningglory, indian mustard, black nightshade redroot pigweed were sowed, and grown in a greenhouse. After the weeds were grown with 10 to 15 cm or so, a predetermined chemical dosage of the wettable powder prepared in accordance with Preparation example 1 was diluted with water containing 0.05% of GRAMIN-S and applied as a foliar treatment. After 14 days from the treatment, herbicidal effects were judged in accordance with the judgment standard of Test example 1, and the results were shown in Table 4. Incidentally, “-” in the table means no test was carried out.
# indian mustard = experiment: as above; details: chemical dosage 2 kg/a; foliar treatment at 10 to 15 cm; judged after 14 days
# Procedure: as §3, §4
# redroot pigweed = experiment: as above; details: chemical dosage 2 kg/a; foliar treatment at 10 to 15 cm; judged after 14 days
# Procedure: as §3, §4
# tall morningglory = experiment: as above; details: chemical dosage 2 kg/a; foliar treatment at 10 to 15 cm; judged after 14 days
# Procedure: as §3, §4
# velvetleaf = experiment: as above; details: chemical dosage 2 kg/a; foliar treatment at 10 to 15 cm; judged after 14 days
# Procedure: as §3, §4
# Cyperus serotinus [7] = experiment: Test Example 4: herbicidal effects of mixed wettable powder, paddy-field pot test; details: no second compound, after 25 days
# In short: (§5)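 Flooded greenhouse pots of paddy soil were sown in the top 1 cm with dormancy-broken weed seeds and planted with tubers, and 2.2-leaf rice was transplanted. Three days later, water-diluted wettable powder was applied at set dosages, and growth inhibition was rated 25 days after that on a 0 (0–15%) to 5 (96–100%) scale.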
# Eleocharis kuroguwai = experiment: as above; details: no second compound, after 25 days
# In short: as §5
# Sagittaria pygmaea = experiment: as above; details: no second compound, after 25 days
# In short: as §5
# Scirpus joncoides [8] = experiment: as above; details: no second compound, after 25 days
# In short: as §5
# [9] = tested on: annual broad-leaved weeds (Lindernia spp. and Rotala indica); experiment: as above; details: no second compound, after 25 days
# In short: as §5
# [10] = tested on: barnyardgrass (Echinochloa oryzicola Vasing.); experiment: as above; details: no second compound, after 25 days
# In short: as §5
# [11] = tested on: transplanted paddy-field rice; experiment: Test Example 4: crop injury against transplanted paddy-field rice; details: no second compound, after 25 days
# In short: as §5
structure (smiles),measurement,setting,value
Cc1cccc(C2CC2)c1Oc1nnc(Cl)cc1O [Example 23],Herbicidal effects Cyperus serotinus,Cyperus serotinus [1]; chemical dosage 10 g/a,5 (Growth inhibition rate; 91 to 100%)
same,Herbicidal effects Cyperus serotinus,Cyperus serotinus [1]; chemical dosage 20 g/a,5 (Growth inhibition rate; 91 to 100%)
same,Herbicidal effects Scirpus joncoides,Scirpus joncoides [2]; chemical dosage 10 g/a,5 (Growth inhibition rate; 91 to 100%)
same,Herbicidal effects Scirpus joncoides,Scirpus joncoides [2]; chemical dosage 20 g/a,5 (Growth inhibition rate; 91 to 100%)
same,Herbicidal effects Broad leaf,[3]; chemical dosage 10 g/a,5 (Growth inhibition rate; 91 to 100%)
same,Herbicidal effects Broad leaf,[3]; chemical dosage 20 g/a,5 (Growth inhibition rate; 91 to 100%)
same,Herbicidal effects Barnyard grass,[4]; chemical dosage 10 g/a,3 (Growth inhibition rate; 51 to 70%)
same,Herbicidal effects Barnyard grass,[4]; chemical dosage 20 g/a,4 (Growth inhibition rate; 71 to 90%)
same,Crop injury against transplanted rice,[5]; chemical dosage 10 g/a,0 (Growth inhibition rate; 0 to 10%)
same,Crop injury against transplanted rice,[5]; chemical dosage 20 g/a,2 (Growth inhibition rate; 31 to 50%)
same,Herbicidal effects Barnyard-grass,barnyardgrass,4 (Growth inhibition rate; 71 to 90%)
same,Herbicidal effects indian mustard,[6],5 (Growth inhibition rate; 91 to 100%)
same,Herbicidal effects Black Night-shade,black nightshade,5 (Growth inhibition rate; 91 to 100%)
same,Herbicidal effects indian mustard,indian mustard,5 (Growth inhibition rate; 91 to 100%)
same,Herbicidal effects Redroot pigweed,redroot pigweed,4 (Growth inhibition rate; 71 to 90%)
same,Herbicidal effects Tall Morningglory,tall morningglory,5 (Growth inhibition rate; 91 to 100%)
same,Herbicidal effects Velvet-leaf,velvetleaf,4 (Growth inhibition rate; 71 to 90%)
same,Herbicidal effects Cyperus serotinus,Cyperus serotinus [7]; derivative 5 g/a,5 (Growth inhibition rate; 96 to 100%)
same,Herbicidal effects Cyperus serotinus,Cyperus serotinus [7]; derivative 10 g/a,5 (Growth inhibition rate; 96 to 100%)
same,Herbicidal effects Eleocharis kuroguwai,Eleocharis kuroguwai; derivative 5 g/a,2 (Growth inhibition rate; 36 to 55%)
same,Herbicidal effects Eleocharis kuroguwai,Eleocharis kuroguwai; derivative 10 g/a,3 (Growth inhibition rate; 56 to 75%)
same,Herbicidal effects Sagittaria pygmaea,Sagittaria pygmaea; derivative 5 g/a,5 (Growth inhibition rate; 96 to 100%)
same,Herbicidal effects Sagittaria pygmaea,Sagittaria pygmaea; derivative 10 g/a,5 (Growth inhibition rate; 96 to 100%)
same,Herbicidal effects Scirpus joncoides,Scirpus joncoides [8]; derivative 5 g/a,5 (Growth inhibition rate; 96 to 100%)
same,Herbicidal effects Scirpus joncoides,Scirpus joncoides [8]; derivative 10 g/a,5 (Growth inhibition rate; 96 to 100%)
same,Herbicidal effects Broad leaf,[9]; derivative 5 g/a,5 (Growth inhibition rate; 96 to 100%)
same,Herbicidal effects Broad leaf,[9]; derivative 10 g/a,5 (Growth inhibition rate; 96 to 100%)
same,Herbicidal effects Barnyard grass,[10]; derivative 5 g/a,2 (Growth inhibition rate; 36 to 55%)
same,Herbicidal effects Barnyard grass,[10]; derivative 10 g/a,3 (Growth inhibition rate; 56 to 75%)
same,Crop injury against transplanted rice,[11]; derivative 5 g/a,0 (Growth-inhibition rate; 0 to 15%)
same,Crop injury against transplanted rice,[11]; derivative 10 g/a,0 (Growth-inhibition rate; 0 to 15%)
